Experimental data as given in US20260125382A1, “COMPOUNDS FOR INHIBITING OR DEGRADING CDK2 AND/OR CDK9 AND MEDICINAL USE THEREOF” (KOREA RESEARCH INSTITUTE OF CHEMICAL TECHNOLOGY, priority 2022, published 2026).

What was measured:
[1] = target: T1, CDK2/cyclin A (Homo sapiens, UniProt P24941); assay: CDK protein inhibition, KINOMEscan (Eurofins), CDK2/cyclin A; format: binding; conditions: 1 μM
T1 construct: purchased Eurofins Scientific

[2] = target: T2, CDK9 (Homo sapiens, UniProt P50750); assay: CDK protein degradation activity (Western blotting), CDK9; format: cell-based; conditions: MDA-MB-231 cells, 16 hours, Western blot
T2 construct: endogenous in cells; host or cells: MDA-MB-231
Method in brief: (§1)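 Degradation is judged from CDK2 and CDK9 band intensity relative to tubulin and DMSO-treated cells, after 16 h exposure of MDA-MB-231 cells to three compound concentrations (100 nM, 1 μM, 10 μM).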

[3] = target: T3, CDK2 (Homo sapiens, UniProt P24941); assay: CDK protein degradation activity (Western blotting), CDK2; format: cell-based; conditions: MDA-MB-231 cells, 16 hours, Western blot
T3 construct: endogenous in cells; host or cells: MDA-MB-231
Method in brief: as §1

T2 sequence (P50750 whole entry): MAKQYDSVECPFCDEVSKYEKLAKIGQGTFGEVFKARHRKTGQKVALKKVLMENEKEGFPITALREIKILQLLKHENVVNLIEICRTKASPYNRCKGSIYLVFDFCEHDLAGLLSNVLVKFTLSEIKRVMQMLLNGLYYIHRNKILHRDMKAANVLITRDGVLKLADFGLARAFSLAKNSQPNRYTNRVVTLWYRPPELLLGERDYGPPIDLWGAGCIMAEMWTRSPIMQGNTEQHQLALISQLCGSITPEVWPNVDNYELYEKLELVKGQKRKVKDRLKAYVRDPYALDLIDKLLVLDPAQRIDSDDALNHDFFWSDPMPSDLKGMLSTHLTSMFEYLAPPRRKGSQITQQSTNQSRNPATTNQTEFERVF

Row | Compound | CDK2/cyclin A inhibition (%) (at concentration of 1 μM) [1] | further results
1 | Cc1cccc(C(=O)N[C@H]2C[C@H](n3cnc4c(NCC5CCN(C(=O)CCCCCNC(=O)CNc6ccc7c(c6)C(=O)N([C@@H]6CCC(=O)NC6=O)C7=O)CC5)ncnc43)C2)n1 (stereo in doubt) [Compound 61, N-((1r,3r)-3-(6-(((1-(6-(2-((2-(2,6-dioxopiperidin-3-yl)-1,3-dioxoisoindolin-5-yl)amino)acetamido)hexanoyl)piperidin-4-yl)methyl)amino)-9H-purin-9-yl)cyclobutyl)-6-methylpicolinamide] | 84% | Enzyme degradation CDK9 (% remaining) @ 0.1 μM [2]: 80%; Enzyme degradation CDK9 (% remaining) @ 1 μM [2]: 50%; Enzyme degradation CDK9 (% remaining) @ 10 μM [2]: 10%; Enzyme degradation CDK2 (% remaining) @ 0.1 μM [3]: 100%; Enzyme degradation CDK2 (% remaining) @ 1 μM [3]: 100%; Enzyme degradation CDK2 (% remaining) @ 10 μM [3]: 40%
2 | Cc1cccc(C(=O)NC2CC(n3cnc4c(NC5CCN(C(=O)CCCCCNC(=O)CNc6cccc7c6C(=O)N([C@@H]6CCC(=O)NC6=O)C7=O)CC5)ncnc43)C2)n1 (some centres unmarked) [Compound 1, N-((1r,3r)-3-(6-((1-(6-(2-((2-(2,6-dioxopiperidin-3-yl)-1,3-dioxoisoindolin-4-yl)amino)acetamido)hexanoyl)piperidin-4-yl)amino)-9H-purin-9-yl)cyclobutyl)-6-methylpicolinamide] | 77% | 
3 | Cc1cccc(C(=O)NC2CC(n3cnc4c(NCC5CCN(C(=O)CCCCCNC(=O)CNc6cccc7c6C(=O)N([C@@H]6CCC(=O)NC6=O)C7=O)CC5)ncnc43)C2)n1 (some centres unmarked) [Compound 2, N-((1r,3r)-3-(6-(((1-(6-(2-((2-(2,6-dioxopiperidin-3-yl)-1,3-dioxoisoindolin-4-yl)amino)acetamido)hexanoyl)piperidin-4-yl)methyl)amino)-9H-purin-9-yl)cyclobutyl)-6-methylpicolinamide] | 84% | 
4 | Cc1cccc(C(=O)NC2CC(n3cnc4c(NC5CCN(C(=O)CCCCCNC(=O)COc6ccc7c(c6)C(=O)N([C@@H]6CCC(=O)NC6=O)C7=O)CC5)ncnc43)C2)n1 (some centres unmarked) [Compound 3, N-((1r,3r)-3-(6-((1-(6-(2-((2-(2,6-dioxopiperidin-3-yl)-1,3-dioxoisoindolin-5-yl)oxy)acetamido)hexanoyl)piperidin-4-yl)amino)-9H-purin-9-yl)cyclobutyl)-6-methylpicolinamide] | 84% | 
5 | Cc1cccc(C(=O)NC2CC(n3cnc4c(NC5CCN(C(=O)CCCCCNC(=O)COc6cccc7c6C(=O)N([C@@H]6CCC(=O)NC6=O)C7=O)CC5)ncnc43)C2)n1 (some centres unmarked) [Compound 4, N-((1r,3r)-3-(6-((1-(6-(2-((2-(2,6-dioxopiperidin-3-yl)-1,3-dioxoisoindolin-4-yl)oxy)acetamido)hexanoyl)piperidin-4-yl)amino)-9H-purin-9-yl)cyclobutyl)-6-methylpicolinamide] | 84% | 
6 | Cc1cccc(C(=O)NC2CC(n3cnc4c(NC5CCN(C(=O)CCCCCNc6ccc7c(c6)C(=O)N([C@@H]6CCC(=O)NC6=O)C7=O)CC5)ncnc43)C2)n1 (some centres unmarked) [Compound 5, N-((1r,3r)-3-(6-((1-(6-((2-(2,6-dioxopiperidin-3-yl)-1,3-dioxoisoindolin-5-yl)amino)hexanoyl)piperidin-4-yl)amino)-9H-purin-9-yl)cyclobutyl)-6-methylpicolinamide] | 91% | 
7 | Cc1cccc(C(=O)NC2CC(n3cnc4c(NC5CCN(C(=O)CCCCCNc6cccc7c6C(=O)N([C@@H]6CCC(=O)NC6=O)C7=O)CC5)ncnc43)C2)n1 (some centres unmarked) [Compound 6, N-((1r,3r)-3-(6-((1-(6-((2-(2,6-dioxopiperidin-3-yl)-1,3-dioxoisoindolin-4-yl)amino)hexanoyl)piperidin-4-yl)amino)-9H-purin-9-yl)cyclobutyl)-6-methylpicolinamide] | 88% | 
8 | Cc1cccc(C(=O)NC2CC(n3cnc4c(NC5CCN(C(=O)COCCOCCNC(=O)COc6ccc7c(c6)C(=O)N([C@H]6CCC(=O)NC6=O)C7=O)CC5)ncnc43)C2)n1 (some centres unmarked) [Compound 7, N-((1s,3s)-3-(6-((1-(2-(2-(2-(2-((2-(2,6-dioxopiperidin-3-yl)-1,3-dioxoisoindolin-5-yl)oxy)acetamido)ethoxy)ethoxy)acetyl)piperidin-4-yl)amino)-9H-purin-9-yl)cyclobutyl)-6-methylpicolinamide] | 94% | 
9 | Cc1cccc(C(=O)NC2CC(n3cnc4c(NC5CCN(C(=O)COCCOCCNC(=O)COc6cccc7c6C(=O)N([C@H]6CCC(=O)NC6=O)C7=O)CC5)ncnc43)C2)n1 (some centres unmarked) [Compound 8, N-((1s,3s)-3-(6-((1-(2-(2-(2-(2-((2-(2,6-dioxopiperidin-3-yl)-1,3-dioxoisoindolin-4-yl)oxy)acetamido)ethoxy)ethoxy)acetyl)piperidin-4-yl)amino)-9H-purin-9-yl)cyclobutyl)-6-methylpicolinamide] | 89% | 
10 | Cc1cccc(C(=O)NC2CC(n3cnc4c(NC5CCN(C(=O)COCCOCCNC(=O)CNc6ccc7c(c6)C(=O)N([C@H]6CCC(=O)NC6=O)C7=O)CC5)ncnc43)C2)n1 (some centres unmarked) [Compound 9, N-((1s,3s)-3-(6-((1-(2-(2-(2-(2-((2-(2,6-dioxopiperidin-3-yl)-1,3-dioxoisoindolin-5-yl)amino)acetamido)ethoxy)ethoxy)acetyl)piperidin-4-yl)amino)-9H-purin-9-yl)cyclobutyl)-6-methylpicolinamide] | 92% | 
11 | Cc1cccc(C(=O)NC2CC(n3cnc4c(NC5CCN(C(=O)COCCOCCNC(=O)CNc6cccc7c6C(=O)N([C@H]6CCC(=O)NC6=O)C7=O)CC5)ncnc43)C2)n1 (some centres unmarked) [Compound 10, N-((1s,3s)-3-(6-((1-(2-(2-(2-(2-((2-(2,6-dioxopiperidin-3-yl)-1,3-dioxoisoindolin-4-yl)amino)acetamido)ethoxy)ethoxy)acetyl)piperidin-4-yl)amino)-9H-purin-9-yl)cyclobutyl)-6-methylpicolinamide] | 90% | 
12 | Cc1cccc(C(=O)NC2CC(n3cnc4c(NC5CCN(C(=O)COCCOCCNc6ccc7c(c6)C(=O)N([C@H]6CCC(=O)NC6=O)C7=O)CC5)ncnc43)C2)n1 (some centres unmarked) [Compound 11, N-((1s,3s)-3-(6-((1-(2-(2-(2-((2-(2,6-dioxopiperidin-3-yl)-1,3-dioxoisoindolin-5-yl)amino)ethoxy)ethoxy)acetyl)piperidin-4-yl)amino)-9H-purin-9-yl)cyclobutyl)-6-methylpicolinamide] | 78% | 
13 | Cc1cccc(C(=O)NC2CC(n3cnc4c(NC5CCN(C(=O)COCCOCCNc6cccc7c6C(=O)N([C@H]6CCC(=O)NC6=O)C7=O)CC5)ncnc43)C2)n1 (some centres unmarked) [Compound 12, N-((1s,3s)-3-(6-((1-(2-(2-(2-((2-(2,6-dioxopiperidin-3-yl)-1,3-dioxoisoindolin-4-yl)amino)ethoxy)ethoxy)acetyl)piperidin-4-yl)amino)-9H-purin-9-yl)cyclobutyl)-6-methylpicolinamide] | 86% | 
14 | Cc1cccc(C(=O)NC2CC(n3cnc4c(NCC5CCN(C(=O)CCCCCNC(=O)CNc6cccc7c6C(=O)N([C@@H]6CCC(=O)NC6=O)C7=O)CC5)ncnc43)C2)n1 (some centres unmarked) [Compound 62, N-((1r,3r)-3-(6-(((1-(6-(2-((2-(2,6-dioxopiperidin-3-yl)-1,3-dioxoisoindolin-4-yl)amino)acetamido)hexanoyl)piperidin-4-yl)methyl)amino)-9H-purin-9-yl)cyclobutyl)-6-methylpicolinamide] | 89% | 
15 | Cc1cccc(C(=O)NC2CC(n3cnc4c(NCC5CCN(C(=O)CCCCCNC(=O)COc6ccc7c(c6)C(=O)N([C@@H]6CCC(=O)NC6=O)C7=O)CC5)ncnc43)C2)n1 (some centres unmarked) [Compound 63, N-((1r,3r)-3-(6-(((1-(6-(2-((2-(2,6-dioxopiperidin-3-yl)-1,3-dioxoisoindolin-5-yl)oxy)acetamido)hexanoyl)piperidin-4-yl)methyl)amino)-9H-purin-9-yl)cyclobutyl)-6-methylpicolinamide] | 83% | 
16 | Cc1cccc(C(=O)NC2CC(n3cnc4c(NCC5CCN(C(=O)CCCCCNC(=O)COc6cccc7c6C(=O)N([C@@H]6CCC(=O)NC6=O)C7=O)CC5)ncnc43)C2)n1 (some centres unmarked) [Compound 64, N-((1r,3r)-3-(6-(((1-(6-(2-((2-(2,6-dioxopiperidin-3-yl)-1,3-dioxoisoindolin-4-yl)oxy)acetamido)hexanoyl)piperidin-4-yl)methyl)amino)-9H-purin-9-yl)cyclobutyl)-6-methylpicolinamide] | 85% | 
17 | Cc1cccc(C(=O)NC2CC(n3cnc4c(NCC5CCN(C(=O)CCCCCNc6cccc7c6C(=O)N([C@@H]6CCC(=O)NC6=O)C7=O)CC5)ncnc43)C2)n1 (some centres unmarked) [Compound 66, N-((1r,3r)-3-(6-(((1-(6-((2-(2,6-dioxopiperidin-3-yl)-1,3-dioxoisoindolin-4-yl)amino)hexanoyl)piperidin-4-yl)methyl)amino)-9H-purin-9-yl)cyclobutyl)-6-methylpicolinamide] | 78% | 
18 | N-((1s,3s)-3-(6-((4-(4-(3-(4-(1-(2-(2,6-dioxopiperidin-3-yl)-1,3-dioxoisoindolin-5-yl)azetidin-3-carbonyl)piperazin-1-yl)propyl)piperidin-1-yl)phenyl)amino)-9H-purin-9-yl)cyclobutyl)-2-phenylacetamide [Compound 366] |  | Enzyme degradation CDK9 (% remaining) @ 0.1 μM [2]: 10/10/10%; Enzyme degradation CDK9 (% remaining) @ 1 μM [2]: 10/10/10%; Enzyme degradation CDK9 (% remaining) @ 10 μM [2]: 10/10/10%; Enzyme degradation CDK2 (% remaining) @ 0.1 μM [3]: 20%; Enzyme degradation CDK2 (% remaining) @ 1 μM [3]: 0%; Enzyme degradation CDK2 (% remaining) @ 10 μM [3]: 0%
